How the values were obtained:
atMnmM (atYtqB) = target: T1, atMnmM (atYtqB) (Arabidopsis thaliana, UniProt Q8GUP2); assay: in vitro tRNA methylation, nucleoside HPLC / LC-MS; format: biochemical; conditions: 0.1 mM SAM, 20 uM enzyme, bulk tRNA from B. subtilis delta-ytqB (nm5s2U), pH 7.5, 37 C
T1 construct: gene At1g16445; residues 53-274, chloroplast signal peptide removed, codon-optimized, His-tagged, expressed in E. coli BL21(DE3)
T1 sequence (Q8GUP2 53-274): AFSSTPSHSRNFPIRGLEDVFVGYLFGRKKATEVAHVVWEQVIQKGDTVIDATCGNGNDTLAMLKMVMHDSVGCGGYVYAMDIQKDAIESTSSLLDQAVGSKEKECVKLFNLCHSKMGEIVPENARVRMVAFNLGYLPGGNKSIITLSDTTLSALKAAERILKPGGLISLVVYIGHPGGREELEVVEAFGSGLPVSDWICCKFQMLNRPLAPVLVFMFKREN

osMnmM (osYtqB) = target: T2, osMnmM (osYtqB) (Oryza sativa, UniProt Q0DGU2); conditions: 0.1 mM SAM, 20 uM enzyme, bulk tRNA from B. subtilis delta-ytqB (nm5s2U), pH 7.5, 37 C
T2 construct: gene Os05g0511700
T2 sequence (Q0DGU2 48-260): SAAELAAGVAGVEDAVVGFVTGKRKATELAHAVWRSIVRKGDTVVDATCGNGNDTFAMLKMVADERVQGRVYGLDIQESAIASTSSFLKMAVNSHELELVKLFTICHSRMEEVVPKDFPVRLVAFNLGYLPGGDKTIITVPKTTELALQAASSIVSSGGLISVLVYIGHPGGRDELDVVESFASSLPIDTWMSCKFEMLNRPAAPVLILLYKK

Q: For C[S+](CC[C@H](N)C(=O)O)C[C@H]1O[C@@H](n2cnc3c(N)ncnc32)[C@H](O)[C@@H]1O (some centres unmarked) [SAM], which “in vitro tRNA methylation, nucleoside HPLC / LC-MS” value (atMnmM (atYtqB)) is on record?
A: The value was “saMnmM, atMnmM, and osMnmM were capable of methylating the hypomodified tRNA substrates”.

Q: And the “in vitro tRNA methylation, nucleoside HPLC / LC-MS” value (osMnmM (osYtqB))?
A: The value was “saMnmM, atMnmM, and osMnmM were capable of methylating the hypomodified tRNA substrates”.

— publication PMC9976899, “Identification of a novel 5-aminomethyl-2-thiouridine methyltransferase in tRNA modification” (Nucleic Acids Research, 2023)
